According to ChEMBL document CHEMBL3576791, “Rational Design of a Novel AMPA Receptor Modulator through a Hybridization Approach” (ACS Med Chem Lett, 2015):
Active and inactive are the calls of the source. No cut-off for these calls is given here.

Experiments:
Format in all cases: cell-based
[1] = biological target: Glutamate receptor 2 (Homo sapiens) (UniProt P42262); experiment: Modulation of GluA2 flip receptor (unknown origin) transfected in HEK293 cells assessed as deactivation of channel at 30 uM by electrophysiology
[2] = biological target: Glutamate receptor 2 (Homo sapiens) (UniProt P42262); experiment: Modulation of GluA2 flop receptor (unknown origin) transfected in HEK293 cells assessed as deactivation of channel at 30 uM by electrophysiology
[3] = biological target: Glutamate receptor 2 (Homo sapiens) (UniProt P42262); experiment: Modulation of GluA2 flip receptor (unknown origin) transfected in HEK293 cells assessed as desensitization measured as increase in steady-state current at 30 uM by electrophysiology
[4] = biological target: Glutamate receptor 2 (Homo sapiens) (UniProt P42262); experiment: Modulation of GluA2 flop receptor (unknown origin) transfected in HEK293 cells assessed as desensitization measured as increase in steady-state current at 30 uM by electrophysiology
[5] = biological target: Glutamate receptor 2 (Homo sapiens) (UniProt P42262); experiment: Modulation of GluA2 flip receptor (unknown origin) transfected in HEK293 cells assessed as deactivation of channel at 100 uM by electrophysiology
[6] = biological target: Glutamate receptor 2 (Homo sapiens) (UniProt P42262); experiment: Modulation of GluA2 flop receptor (unknown origin) transfected in HEK293 cells assessed as deactivation of channel at 100 uM by electrophysiology
[7] = biological target: Glutamate receptor 2 (Homo sapiens) (UniProt P42262); experiment: Modulation of GluA2 flip receptor (unknown origin) transfected in HEK293 cells assessed as desensitization measured as increase in steady-state current at 100 uM by electrophysiology
[8] = biological target: Glutamate receptor 2 (Homo sapiens) (UniProt P42262); experiment: Modulation of GluA2 flop receptor (unknown origin) transfected in HEK293 cells assessed as desensitization measured as increase in steady-state current at 100 uM by electrophysiology

Chain of Glutamate receptor 2 (Homo sapiens) (P42262 whole entry): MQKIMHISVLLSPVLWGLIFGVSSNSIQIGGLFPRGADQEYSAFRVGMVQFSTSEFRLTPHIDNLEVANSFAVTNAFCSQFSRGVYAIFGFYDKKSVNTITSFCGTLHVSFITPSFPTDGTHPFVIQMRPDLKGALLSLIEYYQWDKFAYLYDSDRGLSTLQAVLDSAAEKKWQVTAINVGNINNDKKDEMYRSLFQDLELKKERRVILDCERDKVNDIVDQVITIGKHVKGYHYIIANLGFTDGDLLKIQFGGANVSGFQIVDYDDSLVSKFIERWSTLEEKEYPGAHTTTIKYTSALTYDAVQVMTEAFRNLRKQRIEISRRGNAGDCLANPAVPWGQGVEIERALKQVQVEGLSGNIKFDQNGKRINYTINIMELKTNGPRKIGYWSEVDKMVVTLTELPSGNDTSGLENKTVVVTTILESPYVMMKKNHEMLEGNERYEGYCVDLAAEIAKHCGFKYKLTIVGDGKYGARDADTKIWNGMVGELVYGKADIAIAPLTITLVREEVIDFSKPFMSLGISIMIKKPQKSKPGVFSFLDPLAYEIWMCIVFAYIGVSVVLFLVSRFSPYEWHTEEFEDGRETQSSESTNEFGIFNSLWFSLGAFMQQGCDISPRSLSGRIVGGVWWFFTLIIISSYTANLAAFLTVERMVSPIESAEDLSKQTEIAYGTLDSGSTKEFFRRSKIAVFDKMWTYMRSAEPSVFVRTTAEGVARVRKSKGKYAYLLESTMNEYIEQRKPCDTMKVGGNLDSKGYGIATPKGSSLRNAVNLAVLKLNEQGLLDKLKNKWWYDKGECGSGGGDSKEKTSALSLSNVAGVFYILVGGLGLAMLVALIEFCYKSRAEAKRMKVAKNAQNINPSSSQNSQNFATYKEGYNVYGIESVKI

Activity [1] | Activity [2] | Activity [5] | Activity [6] | Compound | Activity [3] | Activity [4] | Activity [7] | Activity [8]
inactive | inactive | – | – | O=C1c2ccc(-n3cc(CO)c(C(F)(F)F)n3)cc2OC[C@@H]2CCCN12 | inactive | inactive | – | –
Active | inactive | – | – | O=C1c2ccc(Cn3cc(CO)c(C(F)(F)F)n3)cc2OC[C@@H]2CCCN12 | Active | Active | – | –
inactive | inactive | – | – | O=S1(=O)c2ccc(Cn3cc(CO)c(C(F)(F)F)n3)cc2OC[C@@H]2CCCN21 | Active | Active | – | –
– | – | Active | Active | NC(=O)c1c(NC(=O)Cn2cc(CO)c(C(F)(F)F)n2)sc2ccccc12 | – | – | Active | Active
